Source: patent publication US20100129353A1, “COMBINATION AND TREATMENT FOR MULTIPLE SCLEROSIS” (Laboratoires Serono S.A., priority 2004, published 2010)

Tests used:
[1] = test system: brain lesions associated with progression of MS; assay: Study of sixty patients with chronic multiple sclerosis: MRI brain lesions after one year of treatment; format: in vivo; settings: seven days once per month for one year, MRI at month 12
Procedure: A study of sixty patients with chronic multiple sclerosis is undertaken. Each patient is first examined for normal hepatic, renal, and bone marrow functioning to establish baseline values. [table] Each of the patients in Groups 2-4 and 8-10 is treated with 2-CdA dissolved in sterile preservative-free isotonic saline, whereas patients in Groups 1 and 5-7 receive a placebo (saline). The 2-CdA is administered intravenously for a total of seven days, once per month for a total of one year. Each of the patients in Groups 5-10 is treated with natalizumab, whereas Groups 1-4 received placebo (saline). The natalizumab is administered intravenously for a total of seven days, once per month for a total of one year, with the treatment being on the same day as 2-CdA treatment. Patients are monitored to determine whether there is any progression or improvement of brain lesions associated with progression of MS. All patients have a baseline and MRI study (brain or spinal cord, according to localization of the lesions) at month 12.

[2] = test system: MRI-measured brain lesions; settings: MS patients, cited from earlier work

Molecule | change in brain lesions (MRI) ([1]; Group 5: natalizumab 1 mg/kg i.v.) | change in brain lesions (MRI) ([1]; Group 6: natalizumab 3 mg/kg i.v.) | change in brain lesions (MRI) ([1]; Group 7: natalizumab 6 mg/kg i.v.) | MRI-measured brain lesions ([2]; Phase II study as printed (Rice et al., 2000)) | adverse effects ([2]; observed with the highest doses) | change in brain lesions (MRI) ([1]; Group 2: 2-CdA 0.25 mg/kg i.v.) | change in brain lesions (MRI) ([1]; Group 3: 2-CdA 0.5 mg/kg i.v.) | change in brain lesions (MRI) ([1]; Group 4: 2-CdA 1 mg/kg i.v.)
natalizumab: anti-alpha-4 integrin antibody used as the second agent in Example 1 | increase in brain lesions | decrease in brain lesions | decrease in brain lesions | – | – | – | – | –
Nc1nc(Cl)nc2c1ncn2[C@H]1C[C@H](O)[C@@H](CO)O1 [2-CdA, 2-chloro-2′-deoxyadenosine] | – | – | – | significantly reduced MRI-measured brain lesions | increased incidence of infections related to compromised immune function or myelosuppression | increase in brain lesions | increase in brain lesions | decrease in brain lesions
